Assay results taken from patent publication US6994862B2, “Formulation solubilizing water-insoluble agents and preparation method thereof” (Korea Institute of Science and Technology, priority 2000, dated 2006).

Test: Release experiment of a pharmaceutical compound (dialysis bag, PBS pH 7.4, 37° C.)
Assay type: physicochemical
Conditions: within 5 hr; dialysis bag in PBS pH 7.4, 37° C.
Method: Dispersion was prepared by mixing 250 μL of the above liquid formulation with 1.75 mL of distilled water and shaken manually. The mixture was then added into a dialysis bag (MWCO=3,500, Spectra/Por^R, Spectrum Medical Industries, Inc., USA), both ends were tied with a closure, and placed into a 50 ml conical tube containing 10 ml of phosphate buffered saline (PBS, pH=7.4). The conical tube was placed in a 37° C. shaking water bath for the release experiment. The PBS solution located outside the dialysis tube was collected at regular intervals to analyze concentration of the pharmaceutical compound released from the dialysis bag by using Fluorescence spectroscopy (λex=370 nm, λem=480 nm). An aqueous solution where 0.7 mg of rifampicin was dissolved in 2 mL of distilled water was used as a control.
Release experiment was performed using the liquid formulation manufactured the same as in the experimental Example 1 with the exception that 0.7 mg of bromocresol green was used in place of rifampicin. The released drug was collected from the PBS solution and subsequently analyzed for its absorbance at 617 nm. An aqueous solution, where 0.7 mg of bromocresol green was dissolved in 2 mL of distilled water, was used as a control.

For `Cc1c(C2(c3cc(Br)c(O)c(Br)c3C)OS(=O)(=O)c3ccccc32)cc(Br)c(O)c1Br` [bromocresol green], the drug released was “more than 80%”.
